The record followed here is ChEMBL document CHEMBL5465560, “Selectivity Literature for EUbOPEN Chemogenomic Library” (2024).

The target of assay [1] is T1, Dual specificity tyrosine-phosphorylation-regulated kinase 2 (Homo sapiens) (UniProt Q92630).
T1 sequence (whole entry): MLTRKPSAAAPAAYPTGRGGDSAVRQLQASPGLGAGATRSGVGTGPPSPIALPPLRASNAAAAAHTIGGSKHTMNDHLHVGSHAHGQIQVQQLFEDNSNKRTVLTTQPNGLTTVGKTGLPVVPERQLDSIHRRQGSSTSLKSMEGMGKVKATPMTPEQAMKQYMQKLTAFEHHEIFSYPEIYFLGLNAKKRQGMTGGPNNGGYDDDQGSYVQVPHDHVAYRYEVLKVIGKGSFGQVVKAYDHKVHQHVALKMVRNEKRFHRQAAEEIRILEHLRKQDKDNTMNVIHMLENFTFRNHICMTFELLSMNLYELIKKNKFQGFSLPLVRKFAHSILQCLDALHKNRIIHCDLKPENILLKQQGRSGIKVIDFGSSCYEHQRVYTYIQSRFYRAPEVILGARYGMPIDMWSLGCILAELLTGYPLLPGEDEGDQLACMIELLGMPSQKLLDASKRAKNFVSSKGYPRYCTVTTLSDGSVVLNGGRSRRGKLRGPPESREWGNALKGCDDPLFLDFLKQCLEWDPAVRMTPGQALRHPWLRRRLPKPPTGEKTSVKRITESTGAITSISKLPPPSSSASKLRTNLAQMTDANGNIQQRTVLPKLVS
As to the kind of experiment: Selectivity interaction (KinomeScan (DiscoverX)) EUB0001619a DYRK2. The following applies: at 1 µM.

Assay [2] concerns the target Serine/threonine-protein kinase 32C (Homo sapiens) (UniProt Q86UX6). In words: Selectivity interaction (KinomeScan (DiscoverX)) EUB0001619a STK32C. The following applies: at 1 µM.
Assay [3] has as its target Serine/threonine-protein kinase PLK1 (Homo sapiens, UniProt P53350). In words: Selectivity interaction (KinomeScan (DiscoverX)) EUB0000666a PLK1. The following applies: at 10 µM.
Assay [4] addresses Serine/threonine-protein kinase 16 (Homo sapiens, UniProt O75716). As to the kind of experiment: Selectivity interaction (ActivX KiNativ screen (kinase selectivity in THP-1 cell lysates)) EUB0000639a STK16. The following applies: lysate, at 0.01 µM. Format: subcellular.
In assay [5] the target is Choline kinase alpha (Homo sapiens) (UniProt P35790). In words: Selectivity interaction (Kinase panel (literature)) EUB0001199aCl CHKA. The following applies: at 1 µM.
Choline kinase alpha (Homo sapiens), sequence (P35790 whole entry, looked up): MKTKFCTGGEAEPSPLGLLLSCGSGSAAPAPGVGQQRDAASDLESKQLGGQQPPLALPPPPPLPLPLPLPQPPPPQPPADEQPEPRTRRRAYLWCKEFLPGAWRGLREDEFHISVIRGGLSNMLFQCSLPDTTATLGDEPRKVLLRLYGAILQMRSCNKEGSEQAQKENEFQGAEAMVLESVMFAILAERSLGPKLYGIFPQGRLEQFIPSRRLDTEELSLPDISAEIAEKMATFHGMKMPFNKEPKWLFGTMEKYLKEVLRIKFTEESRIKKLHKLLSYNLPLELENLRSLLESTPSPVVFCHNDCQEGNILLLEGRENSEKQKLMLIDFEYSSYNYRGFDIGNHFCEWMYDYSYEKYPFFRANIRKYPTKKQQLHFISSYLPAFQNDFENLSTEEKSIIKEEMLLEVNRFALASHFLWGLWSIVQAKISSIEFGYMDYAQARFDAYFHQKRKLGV
The target of assay [6] is Cyclin-dependent kinase 8 (Homo sapiens, UniProt P49336). In words: Selectivity interaction (KinomeScan (DiscoverX)) EUB0001049a CDK8. The following applies: at 1 µM.
Cyclin-dependent kinase 8, sequence (P49336 whole entry): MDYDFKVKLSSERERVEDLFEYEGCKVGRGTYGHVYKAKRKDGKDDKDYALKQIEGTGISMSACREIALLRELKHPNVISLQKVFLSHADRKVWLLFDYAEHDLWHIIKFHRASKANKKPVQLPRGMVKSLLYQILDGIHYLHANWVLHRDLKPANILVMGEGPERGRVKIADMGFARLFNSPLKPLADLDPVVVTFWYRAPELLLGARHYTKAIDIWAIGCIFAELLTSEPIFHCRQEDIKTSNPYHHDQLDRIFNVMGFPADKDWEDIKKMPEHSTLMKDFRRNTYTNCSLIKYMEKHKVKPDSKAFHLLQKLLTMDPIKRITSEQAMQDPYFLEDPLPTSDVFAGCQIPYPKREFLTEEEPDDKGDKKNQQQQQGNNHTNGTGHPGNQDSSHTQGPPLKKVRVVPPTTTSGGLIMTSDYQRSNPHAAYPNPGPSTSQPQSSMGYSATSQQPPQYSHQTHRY
For assay [7], the target named is T2, 5-hydroxytryptamine receptor 2C (Homo sapiens) (UniProt P28335).
T2 sequence (whole entry): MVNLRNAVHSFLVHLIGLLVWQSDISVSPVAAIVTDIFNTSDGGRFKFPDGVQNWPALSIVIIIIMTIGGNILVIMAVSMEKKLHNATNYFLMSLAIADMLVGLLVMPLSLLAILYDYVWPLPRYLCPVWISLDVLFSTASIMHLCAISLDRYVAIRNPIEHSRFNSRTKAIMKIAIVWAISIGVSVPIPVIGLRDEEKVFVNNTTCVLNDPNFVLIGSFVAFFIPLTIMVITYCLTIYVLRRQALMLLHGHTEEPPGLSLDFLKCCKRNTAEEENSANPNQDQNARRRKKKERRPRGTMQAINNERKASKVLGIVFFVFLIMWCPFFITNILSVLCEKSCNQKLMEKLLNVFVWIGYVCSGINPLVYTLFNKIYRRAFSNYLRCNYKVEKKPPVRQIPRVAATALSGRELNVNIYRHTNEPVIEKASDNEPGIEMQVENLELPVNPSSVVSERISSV
In words: Selectivity interaction (GPCR panel (PDSP screen)) EUB0001079a HTR2C. The following applies: at 10 µM.

Assay [8] has as its target T3, Mitogen-activated protein kinase kinase kinase 5 (Homo sapiens) (UniProt Q99683).
T3 sequence (whole entry): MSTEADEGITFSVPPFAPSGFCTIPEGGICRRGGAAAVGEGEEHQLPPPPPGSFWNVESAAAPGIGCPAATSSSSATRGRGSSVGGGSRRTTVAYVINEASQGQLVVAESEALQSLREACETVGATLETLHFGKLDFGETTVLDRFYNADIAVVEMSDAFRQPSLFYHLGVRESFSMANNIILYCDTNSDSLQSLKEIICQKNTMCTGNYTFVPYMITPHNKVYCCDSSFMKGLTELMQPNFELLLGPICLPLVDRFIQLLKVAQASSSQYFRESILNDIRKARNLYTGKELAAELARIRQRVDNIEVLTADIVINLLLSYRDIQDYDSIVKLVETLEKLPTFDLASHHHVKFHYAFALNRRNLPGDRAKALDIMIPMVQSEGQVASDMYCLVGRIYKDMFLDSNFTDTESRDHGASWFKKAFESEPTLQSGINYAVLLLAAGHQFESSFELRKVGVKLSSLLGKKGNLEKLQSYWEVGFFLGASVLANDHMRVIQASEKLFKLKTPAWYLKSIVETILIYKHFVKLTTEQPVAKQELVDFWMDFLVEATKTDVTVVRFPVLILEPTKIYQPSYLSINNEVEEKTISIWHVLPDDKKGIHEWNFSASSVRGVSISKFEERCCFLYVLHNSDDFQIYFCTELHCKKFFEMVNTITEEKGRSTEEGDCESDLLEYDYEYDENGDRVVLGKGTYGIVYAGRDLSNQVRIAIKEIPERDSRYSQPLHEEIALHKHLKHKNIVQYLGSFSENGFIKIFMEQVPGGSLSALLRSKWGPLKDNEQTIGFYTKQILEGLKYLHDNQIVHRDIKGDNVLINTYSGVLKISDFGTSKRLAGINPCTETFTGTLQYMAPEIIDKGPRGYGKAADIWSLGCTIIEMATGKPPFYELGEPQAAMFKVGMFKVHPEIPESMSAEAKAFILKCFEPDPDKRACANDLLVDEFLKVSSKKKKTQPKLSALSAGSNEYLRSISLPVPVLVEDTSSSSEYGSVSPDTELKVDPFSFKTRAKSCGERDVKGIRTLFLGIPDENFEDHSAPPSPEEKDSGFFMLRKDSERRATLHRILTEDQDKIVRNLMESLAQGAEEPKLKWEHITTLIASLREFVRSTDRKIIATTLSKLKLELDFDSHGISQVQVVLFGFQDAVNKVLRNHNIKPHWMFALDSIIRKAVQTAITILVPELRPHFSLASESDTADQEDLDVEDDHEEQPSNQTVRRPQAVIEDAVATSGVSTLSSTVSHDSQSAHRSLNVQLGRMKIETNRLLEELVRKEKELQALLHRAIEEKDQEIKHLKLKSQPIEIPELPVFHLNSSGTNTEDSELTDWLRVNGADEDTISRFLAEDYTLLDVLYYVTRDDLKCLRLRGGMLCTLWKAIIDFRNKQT
In words: Selectivity interaction (Kinase panel (KiNativ target engagement assay in Jurkat cells)) EUB0001635a MAP3K5. The class given is cell-based. The following applies: Selectivity number of off-targets 0.0, Selectivity number of targets 233.0, Source Knowledge https://www.sciencedirect.com/science/article/pii/S2451945619300674?via%3Dihub, at 1 µM.

Serine/threonine-protein kinase 32C (Homo sapiens), sequence (Q86UX6 whole entry): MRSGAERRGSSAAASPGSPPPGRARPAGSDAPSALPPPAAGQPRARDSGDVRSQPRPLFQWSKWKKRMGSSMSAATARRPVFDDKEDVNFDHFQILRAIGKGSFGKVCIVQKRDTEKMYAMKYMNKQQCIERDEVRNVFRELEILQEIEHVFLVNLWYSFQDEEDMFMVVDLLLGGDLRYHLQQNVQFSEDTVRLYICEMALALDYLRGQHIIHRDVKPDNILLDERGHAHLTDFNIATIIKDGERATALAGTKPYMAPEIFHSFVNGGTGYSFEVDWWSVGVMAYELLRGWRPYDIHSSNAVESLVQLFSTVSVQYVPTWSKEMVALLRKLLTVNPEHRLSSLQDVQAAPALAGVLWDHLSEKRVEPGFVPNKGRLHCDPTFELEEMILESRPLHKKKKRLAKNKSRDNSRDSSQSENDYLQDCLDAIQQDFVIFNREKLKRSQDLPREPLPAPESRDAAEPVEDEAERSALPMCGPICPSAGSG
Serine/threonine-protein kinase PLK1, sequence (P53350 whole entry): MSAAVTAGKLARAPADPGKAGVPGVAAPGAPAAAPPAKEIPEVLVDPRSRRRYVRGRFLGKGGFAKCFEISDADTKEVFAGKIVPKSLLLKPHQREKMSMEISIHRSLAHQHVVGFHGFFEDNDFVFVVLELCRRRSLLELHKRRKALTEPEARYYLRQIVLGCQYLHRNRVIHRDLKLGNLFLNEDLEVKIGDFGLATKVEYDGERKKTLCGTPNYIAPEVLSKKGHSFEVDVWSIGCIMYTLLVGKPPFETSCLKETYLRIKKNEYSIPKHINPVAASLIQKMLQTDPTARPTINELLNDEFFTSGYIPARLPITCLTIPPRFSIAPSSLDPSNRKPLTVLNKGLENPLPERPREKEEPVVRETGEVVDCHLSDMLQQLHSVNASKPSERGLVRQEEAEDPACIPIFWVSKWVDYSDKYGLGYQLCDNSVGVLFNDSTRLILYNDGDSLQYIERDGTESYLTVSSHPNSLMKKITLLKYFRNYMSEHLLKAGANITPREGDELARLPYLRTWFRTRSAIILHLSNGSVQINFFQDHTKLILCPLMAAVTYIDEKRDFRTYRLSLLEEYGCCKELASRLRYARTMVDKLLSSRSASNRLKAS
Serine/threonine-protein kinase 16, sequence (O75716 whole entry): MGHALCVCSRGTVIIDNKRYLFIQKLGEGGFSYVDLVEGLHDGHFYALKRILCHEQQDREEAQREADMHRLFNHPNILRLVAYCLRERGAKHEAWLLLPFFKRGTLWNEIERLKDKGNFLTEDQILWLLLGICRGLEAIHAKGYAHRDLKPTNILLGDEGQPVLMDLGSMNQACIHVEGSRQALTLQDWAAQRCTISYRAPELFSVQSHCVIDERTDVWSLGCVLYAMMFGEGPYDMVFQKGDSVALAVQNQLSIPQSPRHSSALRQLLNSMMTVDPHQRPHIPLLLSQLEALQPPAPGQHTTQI

On to `N#Cc1cccc(-c2c[nH]c3ncnc(N4CCOCC4)c23)c1`, for which the % of control in assay [1] stood at 92%; in assay [2], 100%.

Compound `O=C(NOC[C@H](O)CO)c1ccc(F)c(F)c1Nc1ccc(I)cc1F` yielded a % of control in assay [3] of 72%.

Regarding `CC[C@@H]1[C@H](F)C(=O)N[C@@H]1COc1nccc2cc(C(N)=O)c(OC)cc12` [ZIMLOVISERTIB], in assay [4], the % of inhibition worked out at 21.2%.

On to `CN1Cc2nccc(-c3cn(C)nc3-c3ccc(F)cc3)c2C1=O`, for which the % of inhibition in assay [5] was -3%.

`COc1cc(Nc2nc(C)cc(-c3cnn4nc(OC)ccc34)n2)cc(C(F)(F)F)c1` showed a % of control in assay [6] of 100%.

As to `Nc1cnc(N2CCc3cc(S(=O)(=O)Nc4c(F)cc(Cl)cc4F)cc(N4CCCC4=O)c32)nc1` [TP-020n], the % of inhibition in assay [7] is -15.8%.

As to `C=CC(=O)Nc1ccc(C(=O)Nc2[nH]nc3c2CN(C(=O)N[C@H](CN(C)C)c2ccccc2)C3(C)C)cc1`, the % of engagement in assay [8] turned out to be 3.6%.
